According to US20100151572A1, “ANTI-TUMORAL COMPOSITIONS METHODS” (priority 2005, published 2010):

How the values were obtained:
[1] = Maximally tolerated dose of prodrug in mice; type: in vivo; details: for MTD in mice bearing tumors that express E. coli PNP: versus mice without PNP tumors
Procedure: For experiments shown in FIG. 7, sixteen mice are implanted subcutaneously with D54 parental, no PNP expression cells, D54/PNP MuLv, approximately 250 PNP units), or D54/lentiPNP, […] PNP units tumor cells as described for efficacy evaluations. When tumors are approximately 200 mg the mice are injected intraperitoneally with 20 mg/kg 3H-F-dAdo. This dose of F-dAdo is the maximally tolerated dose of F-dAdo when given 5 times daily for 3 consecutive days. Four mice from each group are sacrificed 5, 15, 30, and 60 minutes after injection of F-dAdo, and plasma samples were obtained. The amount of F-Ade is determined in each plasma sample using reverse phase HPLC, as described.
There is no difference in the F-Ade plasma levels in mice bearing tumors with different levels of E. coli PNP activity, which is consistent with the fact that the MTD of F-dAdo is not reduced in mice bearing tumors that express E. coli PNP.
A similar experiment is conducted with F-araAMP. […] The limit of detection in these experiments with fludarabine is approximately 1 micromolar. As with F-dAdo, the MTD of F-araAMP is not reduced in mice bearing tumors that express E. coli PNP (either from lentivirus or MuLv), or when given in combination with vectors that express E. coli PNP.

[2] = F-Ade plasma levels after prodrug injection in tumor-bearing mice; type: in vivo
Procedure: Measurements of generation and clearance of circulating F-Ade are made by HPLC for example. Radiolabeled prodrug is obtained from Moravek Biochemicals and injected into mice by the same route and dosage used in efficacy experiments for comparison. Plasma samples are removed at increasing time intervals after injection of prodrug and analyzed by reverse-phase HPLC for parent compound and base. Identification of prodrug and F-Ade is by HPLC as described above.
When tumors are approximately 200 mg the mice are injected intraperitoneally with 20 mg/kg 3H-F-dAdo. […] Four mice from each group are sacrificed 5, 15, 30, and 60 minutes after injection of F-dAdo, and plasma samples were obtained. The amount of F-Ade is determined in each plasma sample using reverse phase HPLC, as described.
A similar experiment is conducted with F-araAMP. […] The limit of detection in these experiments with fludarabine is approximately 1 micromolar.

[3] = Systemic dose response tolerability in mice, human dose by Freireich formula; type: in vivo
From the text: The formula of Freireich et al., Cancer Chemother. Rep., 50:219 244, (1966) can be used to determine the maximum tolerated dose of substrate for a human subject. […] This amount or slightly less should be tolerated in humans with minimal side effects. Furthermore, it is understood that modes of administration that permit the substrate to remain localized at or near the site of the tumor will be effective at lower doses than systemically administered substrates.

[4] = tested on: D54 tumors (no PNP expression); assay: Control D54 tumors without PNP expression, drug treatment in vivo
[5] = cited from earlier work
D54 human glioma tumors = assay: Ad-PNP injection of D54 tumors followed by F-araAMP; type: in vivo
Procedure: D54 human glioma tumors (appx. 250 mg) are injected with an Ad-PNP (2×10^9 PFU, open circles) or saline (closed circles). PNP activity in tumor extracts taken two days after vector administration is approximately 5000 PNP units.

[6] = tested on: D54 glioma tumors (lentivirus PNP); assay: D54 tumors expressing E. coli PNP from lentivirus, prodrug treatment in vivo; parameters: species or system human
From the text: Syngeneic models are also used.
D54 glioma tumors are established from a stable cell line expressing E. coli PNP by a strong, CMV-based promoter in a lentiviral vector. FIG. 10 illustrates results. Open Circles: Tumors established from 10% PNP expressing/90% non-expressing tumor cells; PNP activity 9600±1300 units on day 14. Open Triangles: 5% expressing, 95% non-expressing tumor cells; PNP activity 5500±1700 units. Open Squares: Tumors established from 2.5% expressing, 97.5% non-expressing (PNP activity 3600±530 units). Closed symbols depict growth of corresponding (10%, 5%, 2.5%) PNP tumors treated with vehicle (saline control). At least six animals are studied per group. Identically treated animals from each study arm are sacrificed just prior to initiation of MeP-dR therapy (day 14) to measure intratumoral PNP acitivity. […] These experiments test the influence of substantially higher PNP activities on bystander killing in vivo. PNP activity in 300 mg tumors comprised of 100% lentivirus transduced cells is found to be approximately 126,000 PNP units (one unit=1 nmole MeP-dR converted per mg tumor tissue per hour). When the level of E. coli PNP is studied using lentiviral expression, improvements in bystander killing are observed as shown in FIG. 10.
FIG. 12 depicts a study in which 100% of cells express E. coli PNP using lentivirus. Complete regression and cures of tumors (12 of 12) are obtained with F-araAMP following a 3 day treatment schedule. […] Adjusting the schedule of F-araAMP may also improve bystander killing in vivo (FIG. 16).
Tumors in which 100% of cells expressed E. coli PNP are treated with a maximally tolerated dose (MTD, 100 mg/kg schedule, open circles) or half the MTD (closed triangles). Six animals are included per treatment group. […] PNP activity in these tumors is 126,000±16,000 units on the day of drug therapy.
Tumors are established from an inoculum in which 10% of cells expressed E. coli PNP. PNP expression on the day of drug treatment is 14,200±681 PNP units. Anti-tumor efficacy is greater at 100 mg/kg F-araAMP (open circles) than at 50 mg/kg (closed triangles) or 25 mg/kg (open triangles) given over a standard 3 day schedule (q2h×5, q1d×3 days).
D54 glioma tumors are established with decreasing proportions of PNP expressing cells (and increasing non-expressing (parental) cells). (open symbols: F-araAMP therapy; closed symbols: no prodrug therapy; circles: 2.5%; triangles 5%, and squares 10% PNP transduced cells). F-araAMP was 100 mg/kg q2h×5, q1d×3.
Tumors comprised of 5% PNP expressing cells and 2 different fludarabine schedules are shown.

[7] = tested on: D54 glioma tumors (MuLv-PNP transduced); assay: D54 tumors expressing E. coli PNP from MuLV, prodrug treatment in vivo
Procedure: For example, in one in vivo tumor model, tumors are established in animals by subcutaneous implantation of about 10^7 cells into the axillary region of 6-10 mice. Athymic (or scid) mice are used for models of certain human tumors including cells such as D54, HCT-15, and SR475 head/neck. Syngeneic models are also used. For instance, mouse tumors are established using Colon 26 and G26 glioma cells.
The resulting solid tumors are measured twice weekly in two dimensions and the mass calculated using the formula for a prolate ellipsoid, [length (mm)×width^2 (mm)]/2=mg, assuming unit density. The data will permit the determination of a tumor volume doubling time, % “no takes”, and % spontaneous regressions.
PNP expression in MuLv was driven by an SV40 promoter. Mice are given non-absorbable antibiotics in their drinking water prior to treatment with high doses of MeP-dR (e.g. 168 mg/kg/d×3d) to minimize intestinal cleavage of the compound (Bharara, S., et al., 2005, Human Gene Therapy 16:339-347.). Antibiotics are not co:administered for lower doses of MeP-dR, or with less avid substrates such as fludarabine.

[8] = Safety analysis in flank and CNS tumor models with PNP/F-araAMP; type: in vivo
human glioma tumors = assay: HSV-PNP intratumoral inoculation of human glioma tumors in mice; type: in vivo; details: intratumoral MeP-dR 168 mg/kg daily x 3 days with HSV-PNP
Procedure: Using HSV-PNP, a composition including 17 million pfu of the virus in 50 microliters is administered on day 16 following establishment of human glioma tumors in mice. HSV-PNP by itself slows growth of tumors following intratumoral inoculation, approximately 20 days delay to one tumor doubling.

HeLa cells = assay: Ad-PNP mediated cell killing in vitro, crystal violet staining; type: cell-based, human; details: MeP-dR 40 micrograms/milliliter, adenoviral MOI 0.1-100, stained 6 days post infection
Procedure: Confluent HeLa cells are infected with Ad-PNP at various MOIs. MeP-dR is added at 40 micrograms/milliliter in one set of cells at 24 hours post infection. At 6 days post infection, all cultures are stained with Crystal Violet to visualize living cells.
FIG. 17 depicts results using an Ela deleted adenoviral vector encoding E. coli PNP as described herein.

[9] = tested on: Cc1ncnc2c1ncn2[C@H]1C[C@H](O)[C@@H](CO)O1; assay: purified protein, by the assay type; type: biochemical; details: other: substrate of E. coli PNP
From the text: (§1) Table 1 describes the kinetic constants underlying these enzymatic reactions with E. coli PNP.

[10] = tested on: Nc1nc(F)nc2c1ncn2[C@H]1C[C@H](O)[C@@H](CO)O1; assay: purified protein, by the assay type; type: biochemical; details: other: substrate of E. coli PNP
From the text: as §1

[11] = tested on: Nc1nc(F)nc2c1ncn2[C@@H]1O[C@H](CO)[C@@H](O)[C@@H]1O; assay: purified protein, by the assay type; details: other: substrate of E. coli PNP

In the case of `Nc1nc(F)nc2c1ncn2[C@H]1C[C@H](O)[C@@H](CO)O1` [2-F-dAdo, 2-fluoro-2′-deoxyadenosine], the maximally tolerated dose ([1]; mouse, in vivo, 3 days) is reported as 20 mg/kg, the “MTD in mice bearing tumors that express E. coli PNP” value [1] is reported as “not reduced” and the “F-Ade plasma levels in mice bearing tumors with different levels of E. coli PNP activity” value ([2]; 20 mg/kg 3H-F-dAdo ip, 5, 15, 30, 60 min, D54 parental, D54/PNP MuLv, D54/lentiPNP tumors) is reported as “no difference”.
For `Cc1ncnc2c1ncn2[C@@H]1O[C@H]([C@H](C)O)[C@@H](O)[C@H]1O` [5′-methyl(talo)MeP-R], the “human dosage determined by formula of Freireich” value ([3]; 200 mg/kg times 3, from mouse data) was 600 mg/m^2 and the tolerability ([3]; mice, systemic, 200 mg per kg per day for 3 days (3 doses total)) was “well tolerated”.
With `O=NN(CCCl)C(=O)NCCCl` [BCNU] the “activity against D54 tumors” value ([4]; at maximally tolerated doses) was “minimal activity”.
For `Nc1nc(F)nc2c1ncn2[C@@H]1O[C@H](CO)[C@@H](O)[C@@H]1O` [F-araA, 9-(beta-D-arabinofuranosyl)-2-fluoroadenine], the circulating half life ([5]; in vivo) is given as 50 min and the “peak levels compared with MeP-dR” value ([5]; in vivo) is given as “significantly higher”.
With `Nc1nc(F)nc2c1ncn2[C@@H]1O[C@H](COP(=O)(O)O)[C@@H](O)[C@@H]1O` [F-araAMP] the “effect on control D54 tumors” value ([4]; no PNP expression, GFP control transgene, standard 3 day schedule) was “no effect”, the maximally tolerated dose ([1]; given 5 times daily for 3 consecutive days, mice) was 100 mg/kg and the “MTD in mice bearing tumors that express E. coli PNP” value [1] was “not reduced”. For the same molecule, the “anti-tumor effect together with Ad-PNP” value (D54 human glioma tumors; Ad-PNP 2x10^9 PFU, tumors appx. 250 mg, p<0.002 vs virus alone or no treatment) was “slowing of tumor growth”, the “toxicity in the study” value (D54 human glioma tumors; Ad-PNP together with F-araAMP) was “No limiting weight loss, animal deaths or other toxicities” and the “anti-tumor effect vs non-treatment groups” value ([6]; 2.5%, 5%, 10% PNP transduced cells, 100 mg/kg q2h x5, q1d x3, p<0.001) was “significantly different from non-treatment groups”. The “anti-tumor effect vs non-treatment group” value ([6]; 5% PNP expressing cells, 2 different schedules, p<0.001) was “significantly different from non-treatment group”, the “anti-tumor effect vs non-treatment group” value ([6]; 10% PNP cells, 100, 50 or 25 mg/kg q2h x5, q1d x3 days, p<0.001, efficacy greater at 100 mg/kg) was “significantly different from non-treatment group” and the “tolerability during tumor regressions” value ([6]; 100% PNP tumors, F-araAMP MTD or half MTD) was “without excessive weight loss or other undesired sequelae”. The “complete regression and cures of tumors” value ([6]; 100% of cells express PNP, F-araAMP 3 day schedule, MTD (100 mg/kg) or half the MTD, six animals per group) was 12 of 12 and cured of their tumors, the “anti-tumor effects at low proportion of PNP cells” value ([6]; as few as 2.5% of tumor cells express PNP) was “Anti-tumor effects are observed” and the duration of regressions ([7]; 100% of cells expressed E. coli PNP (MuLv), tumors subsequently escape) was ~30 days. For the same molecule, the “bystander killing in vivo” value ([7]; F-araAMP following E. coli PNP transduction with MuLv) was “little or no bystander killing”, the animal longevity [8] was “improved animal longevity” and the “toxicity as judged by weight loss or lethality” value [8] was “have not indicated significant toxicity”. For the same molecule, the prodrug in plasma ([5]; 4 hours after injection of F-araAMP) was “very little prodrug in plasma” and the “F-Ade in plasma of mice bearing tumors expressing E. coli PNP” value ([2]; 100 mg/kg F-araAMP, limit of detection approximately 1 micromolar) was “no F-Ade is detected”.
For `Cc1ncnc2c1ncn2[C@H]1C[C@H](O)[C@@H](CO)O1` [MeP-dR, 9-(2-deoxy-beta-D-ribofuranosyl]-6-methylpurine], the “anti-tumor effect with HSV-PNP” value (human glioma tumors) was “improves tumor regressions and arrest of tumor growth”, the “cell killing in combination with Ad-PNP” value (HeLa cells) was “sufficient to eliminate populations of cancer cells” and the “antitumor effects vs non-treatment groups” value ([6]; MeP-dR, 10%, 5%, 2.5% PNP expressing cells, p<0.05 (2.5%), p<0.005 (5% and 10%)) was “significantly different from non-treatment groups”. For the same molecule, the “anti-tumor effect vs non-treatment groups” value ([7]; 20% PNP-expressing / 80% parental cells, MeP-dR, p<0.002) was “significantly different from non-treatment groups”, the tolerability of treatments ([7]; MeP-dR, 20% PNP (MuLv) and parental tumors) was “well tolerated without limiting weight loss or lethality” and the circulating half life ([5]; in vivo) was ~20 min. The “half life in serum” value ([5]; in vivo) was 15 to 20 min.
In the case of Ad-PNP, the “PNP activity in tumor extracts” value (D54 human glioma tumors; two days after vector administration, 2x10^9 PFU) is reported as “approximately 5000 PNP units”.
With E. coli PNP (Escherichia coli K-12) the Km [9] was 125 µM, the Vmax [9] was 24.3 µmol/min/mg and the Km [10] was 22 µM. For the same molecule, the Vmax [10] was 7.08 µmol/min/mg, the Km [11] was 960 µM and the Vmax [11] was 0.0983 µmol/min/mg.
